Values quoted from earlier work, collected in US20220151922A1, “Medication for Alleviating Parkinson's Symptoms and Method of Administering” (priority 2020, published 2022).

Columns and labels:
[1] = system: Pseudomonas aeruginosa biofilms
[2] = system: bacteria, bacterial spores, and viruses; details: versus chlorine bleach

SMILES: OCl [HOCl, Hypochlorous acid]
- removing Pseudomonas aeruginosa biofilms [1]: effectiveness
- effectiveness of killing bacteria, bacterial spores, and viruses relative to chlorine bleach [2]: 100 times
